# Experimental data taken from patent US20240368135A1 (VERTEX PHARMACEUTICALS INCORPORATED, priority 2021, published 2024).
# Read-outs that look alike come from different tables or passages of the source.
# Biological target: human NaV 1.8 (Homo sapiens, UniProt Q9Y5Y9)
# Assay: E-VIPR assay detecting and measuring NaV inhibition properties
# Type: cell-based
# Details: HEK cells expressing truncated human NaV 1.8
# Method in brief: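 Membrane potential was followed by coumarin/oxonol FRET during electrical field stimulation of matrigel-seeded HEK cells carrying truncated human NaV1.8 plus KIR2.1. Dosing used 11 points, 3-fold steps, top 300 nM final, 0.625% DMSO, with or without 25% human serum.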
# [1] = no human serum, read-out: IC50 in the E-VIPR Assay
# [2] = in the presence of human serum (compound numbers followed by *), read-out: IC50 in the E-VIPR Assay, performed in the presence of human serum
# Sequence of human NaV 1.8 (Q9Y5Y9 126-399 limits assumed): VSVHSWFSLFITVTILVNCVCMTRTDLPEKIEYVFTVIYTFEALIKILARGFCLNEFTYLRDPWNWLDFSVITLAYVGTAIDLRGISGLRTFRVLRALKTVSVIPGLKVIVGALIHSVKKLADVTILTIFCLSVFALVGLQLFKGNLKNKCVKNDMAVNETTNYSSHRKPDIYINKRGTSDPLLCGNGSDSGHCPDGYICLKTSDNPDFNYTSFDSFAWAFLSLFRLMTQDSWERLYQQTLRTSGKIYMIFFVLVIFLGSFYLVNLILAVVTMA
# Sequence of human NaV 1.8 (Q9Y5Y9 660-890 limits assumed): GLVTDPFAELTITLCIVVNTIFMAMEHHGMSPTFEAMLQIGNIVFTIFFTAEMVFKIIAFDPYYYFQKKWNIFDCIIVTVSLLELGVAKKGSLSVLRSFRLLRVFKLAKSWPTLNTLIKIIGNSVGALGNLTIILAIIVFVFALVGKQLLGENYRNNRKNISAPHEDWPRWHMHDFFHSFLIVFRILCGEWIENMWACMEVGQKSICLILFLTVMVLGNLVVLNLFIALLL
# Sequence of human NaV 1.8 (Q9Y5Y9 1148-1722 limits assumed): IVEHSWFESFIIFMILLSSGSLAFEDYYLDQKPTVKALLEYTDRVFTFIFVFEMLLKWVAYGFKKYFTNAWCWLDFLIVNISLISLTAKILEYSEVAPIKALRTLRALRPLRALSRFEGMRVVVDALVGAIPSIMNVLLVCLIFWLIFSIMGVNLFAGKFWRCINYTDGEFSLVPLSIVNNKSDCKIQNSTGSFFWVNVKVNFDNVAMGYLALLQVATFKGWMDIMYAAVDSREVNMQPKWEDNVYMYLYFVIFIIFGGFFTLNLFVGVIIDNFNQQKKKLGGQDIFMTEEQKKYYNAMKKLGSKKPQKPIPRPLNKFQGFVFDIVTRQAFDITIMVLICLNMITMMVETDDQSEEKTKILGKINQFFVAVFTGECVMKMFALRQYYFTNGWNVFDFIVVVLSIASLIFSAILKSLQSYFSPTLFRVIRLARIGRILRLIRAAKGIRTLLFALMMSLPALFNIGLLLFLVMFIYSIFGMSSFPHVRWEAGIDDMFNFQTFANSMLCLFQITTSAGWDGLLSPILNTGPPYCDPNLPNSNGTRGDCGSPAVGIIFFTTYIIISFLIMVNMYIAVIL
IC50 [1] [nM],IC50 [2] [nM],Structure (SMILES)
10 to 100,,"COc1c([C@H]2[C@H](C(=O)Nc3ccnc(N(C)C)c3)O[C@@](C)(C(F)(F)F)[C@H]2C)ccc(F)c1F [Compound 320, (2R,3S,4S,5R)-3-(3,4-difluoro-2-methoxyphenyl)-N-(2-(dimethylamino)-pyridin-4-yl)-4,5-dimethyl-5-(trifluoromethyl)-tetrahydrofuran-2-carboxamide]"
≥ 1000,,"COCn1cnc(NC(=O)[C@@H]2O[C@@](C)(C(F)(F)F)[C@@H](C)[C@H]2c2ccc(F)c(F)c2OCCO)n1 [Compound 553, (2R,3S,4S,5R)-3-(3,4-difluoro-2-(2-hydroxyethoxy)phenyl)-N-(1-(methoxymethyl)-1H-1,2,4-triazol-3-yl)-4,5-dimethyl-5-(trifluoromethyl)tetrahydrofuran-2-carboxamide]"
,100 to 1000,"CCc1c(F)ccc([C@@H]2C[C@](C)(C(F)(F)F)O[C@H]2C(=O)Nc2cn(S(C)(=O)=O)nc2C)c1OC (stereo in doubt) [Compound 717, rel-(2R,3S,5R)-3-(3-ethyl-4-fluoro-2-methoxyphenyl)-5-methyl-N-(3-methyl-1-(methylsulfonyl)-1H-pyrazol-4-yl)-5-(trifluoromethyl)tetrahydrofuran-2-carboxamide]"
< 10,,"COc1c([C@H]2[C@H](C(=O)Nc3cn(C(F)F)nc3C)O[C@@](C)(C(F)(F)F)[C@H]2C)ccc(F)c1F [Compound 311, (2R,3S,4S,5R)-3-(3,4-difluoro-2-methoxyphenyl)-N-(1-(difluoromethyl)-3-methyl-1H-pyrazol-4-yl)-4,5-dimethyl-5-(trifluoromethyl)tetrahydrofuran-2-carboxamide]"
10 to 100,,"COc1c([C@H]2[C@H](C(=O)Nc3ccnc(C[C@H]4COCCN4)c3)O[C@@](C)(C(F)(F)F)[C@H]2C)ccc(F)c1F [Compound 214, (2R,3S,4S,5R)-3-(3,4-difluoro-2-methoxyphenyl)-4,5-dimethyl-N-(2-(((S)-morpholin-3-yl)methyl)pyridin-4-yl)-5-(trifluoromethyl)tetrahydrofuran-2-carboxamide]"
< 10,,"CCOc1c(C2C(C(=O)Nc3ccnc(S(C)(=O)=NC)c3)OC(C)(C(F)(F)F)C2C)ccc(F)c1F (stereo not shown) [Compound 113, N-[2-(N,S-dimethylsulfonimidoyl)-4-pyridyl]-3-(2-ethoxy-3,4-difluoro-phenyl)-4,5-dimethyl-5-(trifluoromethyl)tetrahydrofuran-2-carboxamide]"
< 10,,"COc1c(C2C(C(=O)Nc3ccnc(C(O)CO)c3)OC(C)(C(F)(F)F)C2C)ccc(F)c1F (single isomer, unassigned) [Compound 44, 3-(3,4-difluoro-2-methoxy-phenyl)-N-[2-(1,2-dihydroxyethyl)-4-pyridyl]-4,5-dimethyl-5-(trifluoromethyl)tetrahydrofuran-2-carboxamide]"
100 to 1000,,"CCOc1c(C2C(C(=O)Nc3cc(S(C)(=N)=O)c[n+](C)c3)OC(C)(C(F)(F)F)C2C)ccc(F)c1F (stereo not shown) [Compound 114, 3-(2-ethoxy-3,4-difluoro-phenyl)-4,5-dimethyl-N-[1-methyl-5-(methylsulfonimidoyl)pyridin-1-ium-3-yl]-5-(trifluoromethyl)tetrahydrofuran-2-carboxamide]"
< 10,,"COCCOc1c([C@H]2[C@H](C(=O)Nc3ccc4nncn4c3)O[C@@](C)(C(F)(F)F)[C@H]2C)ccc(F)c1F [Compound 577, (2R,3S,4S,5R)-3-[3,4-difluoro-2-(2-methoxyethoxy)phenyl]-4,5-dimethyl-N-([1,2,4]triazolo[4,3-a]pyridin-6-yl)-5-(trifluoromethyl)tetrahydrofuran-2-carboxamide]"
< 10,,"COc1c([C@H]2[C@H](C(=O)Nc3ccnc(CN4CCCC4)c3)O[C@@](C)(C(F)(F)F)[C@H]2C)ccc(F)c1F [Compound 184, (2R,3S,4S,5R)-3-(3,4-difluoro-2-methoxyphenyl)-4,5-dimethyl-N-(2-(pyrrolidin-1-ylmethyl)pyridin-4-yl)-5-(trifluoromethyl)tetrahydrofuran-2-carboxamide]"
10 to 100,,"COc1c([C@H]2[C@H](C(=O)Nc3ccc(C[C@@H](O)CO)nc3)O[C@@](C)(C(F)(F)F)[C@H]2C)ccc(F)c1F [Compound 334, (2R,3S,4S,5R)-3-(3,4-difluoro-2-methoxy-phenyl)-N-[6-[(2R)-2,3-dihydroxypropyl]-3-pyridyl]-4,5-dimethyl-5-(trifluoromethyl)tetrahydrofuran-2-carboxamide]"
< 10,,"C[C@H]1[C@@H](c2ccc(F)c(F)c2OC(F)F)[C@H](C(=O)Nc2ccc(C(N)=O)cc2)O[C@@]1(C)C(F)(F)F (stereo in doubt) [Compound 74, rel-(2R,3S,4S,5R)-N-(4-carbamoylphenyl)-3-(2-(difluoromethoxy)-3,4-difluorophenyl)-4,5-dimethyl-5-(trifluoromethyl)tetrahydrofuran-2-carboxamide]"
10 to 100,,"COCC(N)c1cc(NC(=O)[C@@H]2O[C@@](C)(C(F)(F)F)[C@@H](C)[C@H]2c2ccc(F)c(F)c2OC)ncn1 (single isomer, unassigned) [Compound 217]"
10 to 100,,COc1c([C@H]2[C@H](C(=O)Nc3cc(N4C(=O)CN(C)C[C@H]4C)ncn3)O[C@@](C)(C(F)(F)F)[C@H]2C)ccc(F)c1F [Compound 513]
< 10,,"C[C@H]1[C@@H](c2ccc(F)c(F)c2OCCOC(F)F)[C@H](C(=O)Nc2ccnc(CO)c2)O[C@@]1(C)C(F)(F)F [Compound 641, (2R,3S,4S,5R)-3-(2-(2-(difluoromethoxy)ethoxy)-3,4-difluorophenyl)-N-(2-(hydroxymethyl)pyridin-4-yl)-4,5-dimethyl-5-(trifluoromethyl)tetrahydrofuran-2-carboxamide]"
< 10,,"COc1c([C@H]2[C@H](C(=O)Nc3ccc4cnnn4c3)O[C@@](C)(C(F)(F)F)[C@H]2C)ccc(F)c1F [Compound 329, (2R,3S,4S,5R)-N-([1,2,3]triazolo[1,5-a]pyridin-6-yl)-3-(3,4-difluoro-2-methoxyphenyl)-4,5-dimethyl-5-(trifluoromethyl)-tetrahydrofuran-2-carboxamide]"
< 10,,"CNC(=O)CN(C)c1cc(NC(=O)[C@@H]2O[C@@](C)(C(F)(F)F)[C@@H](C)[C@H]2c2ccc(F)c(F)c2OC)ccn1 [Compound 487, (2R,3S,4S,5R)-3-(3,4-difluoro-2-methoxyphenyl)-4,5-dimethyl-N-(2-(methyl(2-(methylamino)-2-oxoethyl)amino)pyridin-4-yl)-5-(trifluoromethyl)tetrahydrofuran-2-carboxamide]"
< 10,,"CCOc1c(C2C(C(=O)Nc3ccnc(S(C)(=N)=O)c3)OC(C)(C(F)(F)F)C2C)ccc(F)c1F (single isomer, unassigned) [Compound 110, 3-(2-ethoxy-3,4-difluoro-phenyl)-4,5-dimethyl-N-[2-(methylsulfonimidoyl)-4-pyridyl]-5-(trifluoromethyl)tetrahydrofuran-2-carboxamide]"
< 10,,"COc1c([C@H]2[C@H](C(=O)Nc3ccc(N)nc3)O[C@@](C)(C(F)(F)F)[C@H]2C)ccc(F)c1F [Compound 523, (2R,3S,4S,5R)—N-(6-aminopyridin-3-yl)-3-(3,4-difluoro-2-methoxyphenyl)-4,5-dimethyl-5-(trifluoromethyl)tetrahydrofuran-2-carboxamide]"
10 to 100,,"COc1c([C@H]2[C@H](C(=O)Nc3ccnc(N4CCN(C)[C@H](C)C4=O)c3)O[C@@](C)(C(F)(F)F)[C@H]2C)ccc(F)c1F [Compound 475, (2R,3S,4S,5R)-3-(3,4-difluoro-2-methoxyphenyl)-N-(2-((R)-3,4-dimethyl-2-oxopiperazin-1-yl)pyridin-4-yl)-4,5-dimethyl-5-(trifluoromethyl)tetrahydrofuran-2-carboxamide]"
10 to 100,,"COc1c([C@H]2[C@H](C(=O)Nc3ccnc(N4CCN[C@H](C)C4=O)c3)O[C@@](C)(C(F)(F)F)[C@H]2C)ccc(F)c1F [Compound 484, (2R,3S,4S,5R)-3-(3,4-difluoro-2-methoxyphenyl)-4,5-dimethyl-N-(2-((R)-3-methyl-2-oxopiperazin-1-yl)pyridin-4-yl)-5-(trifluoromethyl)tetrahydrofuran-2-carboxamide]"
,≥ 1000,"C[C@@H]1[C@H](c2ccc(F)c(F)c2OC(F)F)[C@@H](C(=O)Nc2ccc(=O)n(C)c2)O[C@]1(C)C(F)(F)F (single isomer, unassigned) [Compound 67]"
10 to 100,,"COc1c([C@H]2[C@H](C(=O)Nc3ccnc(OC4CCN(C)C4=O)c3)O[C@@](C)(C(F)(F)F)[C@H]2C)ccc(F)c1F (single isomer, unassigned) [Compound 198, rel-(2R*,3S*,4S*,5R*)-3-(3,4-difluoro-2-methoxyphenyl)-4,5-dimethyl-N-(2-((1-methyl-2-oxopyrrolidin-3-yl)oxy)pyridin-4-yl)-5-(trifluoromethyl)tetrahydrofuran-2-carboxamide]"
10 to 100,,"C[C@H]1[C@@H](c2ccc(F)c(F)c2OCCO)[C@H](C(=O)Nc2cnsc2)O[C@@]1(C)C(F)(F)F [Compound 572, (2R,3S,4S,5R)-3-(3,4-difluoro-2-(2-hydroxyethoxy)phenyl)-N-(isothiazol-4-yl)-4,5-dimethyl-5-(trifluoromethyl)tetrahydrofuran-2-carboxamide]"

Structure (SMILES),IC50 [1] [nM],IC50 [2] [nM]
"COc1c([C@H]2[C@H](C(=O)Nc3ccnc(N4C[C@@H]5CC[C@H](C4=O)N5C)c3)O[C@@](C)(C(F)(F)F)[C@H]2C)ccc(F)c1F (single isomer, unassigned) [Compound 504, rel-(2R*,3S*,4S*,5R*)-3-(3,4-difluoro-2-methoxyphenyl)-4,5-dimethyl-N-(2-((1R,5S)-8-methyl-2-oxo-3,8-diazabicyclo[3.2.1]octan-3-yl)pyridin-4-yl)-5-(trifluoromethyl)tetrahydrofuran-2-carboxamide]",10 to 100,
